# Measurements: the supplement of paper PMC10307832
# Experiments:
# Assay in all cases: relative viability (nuclei count vs DMSO), 5 days (fraction); higher = more cells survive
# Pictilisib + Phenformin = compound: CS(=O)(=O)N1CCN(Cc2cc3nc(-c4cccc5[nH]ncc45)nc(N4CCOCC4)c3s2)CC1 [Pictilisib] + N=C(N)NC(=N)NCCc1ccccc1 [Phenformin] (partner 250 µM)
# Procedure, shortened: (§1)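 Lung cancer cell lines, seeded in 1536-well plates, were treated the following day by pin tool with a single drug or with five library-drug doses (not always all listed) in √10 steps on top of a fixed anchor-drug dose. Cells were fixed and nuclei stained in one step after 5 days, and nuclei were counted. Relative viability is the nuclei count for treated wells divided by that for vehicle wells, reported as medians of duplicate plates.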
# Pictilisib + Vorinostat = compound: CS(=O)(=O)N1CCN(Cc2cc3nc(-c4cccc5[nH]ncc45)nc(N4CCOCC4)c3s2)CC1 [Pictilisib] + O=C(CCCCCCC(=O)Nc1ccccc1)NO [Vorinostat] (partner 1 µM)
# Procedure, shortened: as §1
# MK-2206 + Luminespib = compound: NC1(c2ccc(-c3nc4ccn5c(=O)[nH]nc5c4cc3-c3ccccc3)cc2)CCC1 [MK-2206] + CCNC(=O)c1noc(-c2cc(C(C)C)c(O)cc2O)c1-c1ccc(CN2CCOCC2)cc1 [Luminespib] (partner 0.01 µM)
# Procedure, shortened: as §1
# MK-2206 + Phenformin = compound: NC1(c2ccc(-c3nc4ccn5c(=O)[nH]nc5c4cc3-c3ccccc3)cc2)CCC1 [MK-2206] + N=C(N)NC(=N)NCCc1ccccc1 [Phenformin] (partner 250 µM)
# Procedure, shortened: as §1
# MK-2206 + Olaparib = compound: NC1(c2ccc(-c3nc4ccn5c(=O)[nH]nc5c4cc3-c3ccccc3)cc2)CCC1 [MK-2206] + O=C(c1cc(Cc2n[nH]c(=O)c3ccccc23)ccc1F)N1CCN(C(=O)C2CC2)CC1 [Olaparib] (partner 8 µM)
# Procedure, shortened: as §1
cell line,measurement,setting,value
NCI-H1355,relative viability,Pictilisib + Phenformin; first compound 0.02 µM,0.493
same,relative viability,Pictilisib + Phenformin; first compound 0.06325 µM,0.467
same,relative viability,Pictilisib + Phenformin; first compound 0.6325 µM,0.393
same,relative viability,Pictilisib + Phenformin; first compound 2 µM,0.248
same,relative viability,Pictilisib + Vorinostat; first compound 0.02 µM,0.62
same,relative viability,Pictilisib + Vorinostat; first compound 0.06325 µM,0.624
same,relative viability,Pictilisib + Vorinostat; first compound 0.6325 µM,0.589
same,relative viability,Pictilisib + Vorinostat; first compound 2 µM,0.257
same,relative viability,MK-2206 + Luminespib; first compound 0.01 µM,0.799
same,relative viability,MK-2206 + Luminespib; first compound 0.03162 µM,0.689
same,relative viability,MK-2206 + Luminespib; first compound 0.3162 µM,0.752
same,relative viability,MK-2206 + Luminespib; first compound 1 µM,0.696
same,relative viability,MK-2206 + Phenformin; first compound 0.01 µM,0.434
same,relative viability,MK-2206 + Phenformin; first compound 0.03162 µM,0.476
same,relative viability,MK-2206 + Phenformin; first compound 0.3162 µM,0.4
same,relative viability,MK-2206 + Phenformin; first compound 1 µM,0.317
same,relative viability,MK-2206 + Olaparib; first compound 0.01 µM,0.767
same,relative viability,MK-2206 + Olaparib; first compound 0.03162 µM,0.829
same,relative viability,MK-2206 + Olaparib; first compound 0.3162 µM,0.672
same,relative viability,MK-2206 + Olaparib; first compound 1 µM,0.761
LC-2-ad,relative viability,Pictilisib + Phenformin; first compound 0.02 µM,0.593
same,relative viability,Pictilisib + Phenformin; first compound 0.06325 µM,0.636
same,relative viability,Pictilisib + Phenformin; first compound 0.6325 µM,0.464
same,relative viability,Pictilisib + Phenformin; first compound 2 µM,0.323
same,relative viability,Pictilisib + Vorinostat; first compound 0.02 µM,0.699
same,relative viability,Pictilisib + Vorinostat; first compound 0.06325 µM,0.779
same,relative viability,Pictilisib + Vorinostat; first compound 0.6325 µM,0.466
same,relative viability,Pictilisib + Vorinostat; first compound 2 µM,0.447
same,relative viability,MK-2206 + Luminespib; first compound 0.01 µM,1.01
same,relative viability,MK-2206 + Luminespib; first compound 0.03162 µM,1.01
same,relative viability,MK-2206 + Luminespib; first compound 0.3162 µM,1.24
same,relative viability,MK-2206 + Luminespib; first compound 1 µM,1.08
same,relative viability,MK-2206 + Phenformin; first compound 0.01 µM,0.544
same,relative viability,MK-2206 + Phenformin; first compound 0.03162 µM,0.589
same,relative viability,MK-2206 + Phenformin; first compound 0.3162 µM,0.532
same,relative viability,MK-2206 + Phenformin; first compound 1 µM,0.365
same,relative viability,MK-2206 + Olaparib; first compound 0.01 µM,0.662
same,relative viability,MK-2206 + Olaparib; first compound 0.03162 µM,0.73
same,relative viability,MK-2206 + Olaparib; first compound 0.3162 µM,0.767
same,relative viability,MK-2206 + Olaparib; first compound 1 µM,0.795
NCI-H1944,relative viability,Pictilisib + Phenformin; first compound 0.02 µM,0.206
same,relative viability,Pictilisib + Phenformin; first compound 0.06325 µM,0.184
same,relative viability,Pictilisib + Phenformin; first compound 0.6325 µM,0.137
same,relative viability,Pictilisib + Phenformin; first compound 2 µM,0.141
same,relative viability,Pictilisib + Vorinostat; first compound 0.02 µM,0.61
same,relative viability,Pictilisib + Vorinostat; first compound 0.06325 µM,0.494
same,relative viability,Pictilisib + Vorinostat; first compound 0.6325 µM,0.375
same,relative viability,Pictilisib + Vorinostat; first compound 2 µM,0.201
same,relative viability,MK-2206 + Luminespib; first compound 0.01 µM,0.729
same,relative viability,MK-2206 + Luminespib; first compound 0.03162 µM,0.806
same,relative viability,MK-2206 + Luminespib; first compound 0.3162 µM,0.685
same,relative viability,MK-2206 + Luminespib; first compound 1 µM,0.676
same,relative viability,MK-2206 + Phenformin; first compound 0.01 µM,0.197
same,relative viability,MK-2206 + Phenformin; first compound 0.03162 µM,0.217
same,relative viability,MK-2206 + Phenformin; first compound 0.3162 µM,0.169
same,relative viability,MK-2206 + Phenformin; first compound 1 µM,0.185
same,relative viability,MK-2206 + Olaparib; first compound 0.01 µM,0.388
same,relative viability,MK-2206 + Olaparib; first compound 0.03162 µM,0.439
same,relative viability,MK-2206 + Olaparib; first compound 0.3162 µM,0.429
same,relative viability,MK-2206 + Olaparib; first compound 1 µM,0.478
HCC-827,relative viability,Pictilisib + Phenformin; first compound 0.02 µM,0.423
same,relative viability,Pictilisib + Phenformin; first compound 0.06325 µM,0.419
same,relative viability,Pictilisib + Phenformin; first compound 0.6325 µM,0.376
same,relative viability,Pictilisib + Phenformin; first compound 2 µM,0.306
same,relative viability,Pictilisib + Vorinostat; first compound 0.02 µM,0.827
same,relative viability,Pictilisib + Vorinostat; first compound 0.06325 µM,0.811
same,relative viability,Pictilisib + Vorinostat; first compound 0.6325 µM,0.829
same,relative viability,Pictilisib + Vorinostat; first compound 2 µM,0.559
same,relative viability,MK-2206 + Luminespib; first compound 0.01 µM,0.638
same,relative viability,MK-2206 + Luminespib; first compound 0.03162 µM,0.723
same,relative viability,MK-2206 + Luminespib; first compound 0.3162 µM,0.421
same,relative viability,MK-2206 + Luminespib; first compound 1 µM,0.636
same,relative viability,MK-2206 + Phenformin; first compound 0.01 µM,0.45
same,relative viability,MK-2206 + Phenformin; first compound 0.03162 µM,0.434
same,relative viability,MK-2206 + Phenformin; first compound 0.3162 µM,0.402
same,relative viability,MK-2206 + Phenformin; first compound 1 µM,0.326
same,relative viability,MK-2206 + Olaparib; first compound 0.01 µM,0.671
same,relative viability,MK-2206 + Olaparib; first compound 0.03162 µM,0.678
same,relative viability,MK-2206 + Olaparib; first compound 0.3162 µM,0.506
same,relative viability,MK-2206 + Olaparib; first compound 1 µM,0.523
COR-L23,relative viability,Pictilisib + Phenformin; first compound 0.02 µM,0.428
same,relative viability,Pictilisib + Phenformin; first compound 0.06325 µM,0.471
same,relative viability,Pictilisib + Phenformin; first compound 0.6325 µM,0.522
same,relative viability,Pictilisib + Phenformin; first compound 2 µM,0.424
same,relative viability,Pictilisib + Vorinostat; first compound 0.02 µM,0.491
same,relative viability,Pictilisib + Vorinostat; first compound 0.06325 µM,0.407
same,relative viability,Pictilisib + Vorinostat; first compound 0.6325 µM,0.386
same,relative viability,Pictilisib + Vorinostat; first compound 2 µM,0.286
same,relative viability,MK-2206 + Luminespib; first compound 0.01 µM,0.713
same,relative viability,MK-2206 + Luminespib; first compound 0.03162 µM,0.695
same,relative viability,MK-2206 + Luminespib; first compound 0.3162 µM,0.581
same,relative viability,MK-2206 + Luminespib; first compound 1 µM,0.529
same,relative viability,MK-2206 + Phenformin; first compound 0.01 µM,0.417
same,relative viability,MK-2206 + Phenformin; first compound 0.03162 µM,0.452
same,relative viability,MK-2206 + Phenformin; first compound 0.3162 µM,0.422
same,relative viability,MK-2206 + Phenformin; first compound 1 µM,0.459
same,relative viability,MK-2206 + Olaparib; first compound 0.01 µM,0.32
same,relative viability,MK-2206 + Olaparib; first compound 0.03162 µM,0.31
same,relative viability,MK-2206 + Olaparib; first compound 0.3162 µM,0.297
same,relative viability,MK-2206 + Olaparib; first compound 1 µM,0.328
NCI-H3122,relative viability,Pictilisib + Phenformin; first compound 0.02 µM,0.402
same,relative viability,Pictilisib + Phenformin; first compound 0.06325 µM,0.4
same,relative viability,Pictilisib + Phenformin; first compound 0.6325 µM,0.394
same,relative viability,Pictilisib + Phenformin; first compound 2 µM,0.284
same,relative viability,Pictilisib + Vorinostat; first compound 0.02 µM,0.91
same,relative viability,Pictilisib + Vorinostat; first compound 0.06325 µM,0.965
same,relative viability,Pictilisib + Vorinostat; first compound 0.6325 µM,0.759
same,relative viability,Pictilisib + Vorinostat; first compound 2 µM,0.504
same,relative viability,MK-2206 + Luminespib; first compound 0.01 µM,0.118
same,relative viability,MK-2206 + Luminespib; first compound 0.03162 µM,0.1
same,relative viability,MK-2206 + Luminespib; first compound 0.3162 µM,0.0816
same,relative viability,MK-2206 + Luminespib; first compound 1 µM,0.084
same,relative viability,MK-2206 + Phenformin; first compound 0.01 µM,0.367
same,relative viability,MK-2206 + Phenformin; first compound 0.03162 µM,0.414
same,relative viability,MK-2206 + Phenformin; first compound 0.3162 µM,0.395
same,relative viability,MK-2206 + Phenformin; first compound 1 µM,0.353
same,relative viability,MK-2206 + Olaparib; first compound 0.01 µM,0.681
same,relative viability,MK-2206 + Olaparib; first compound 0.03162 µM,0.687
same,relative viability,MK-2206 + Olaparib; first compound 0.3162 µM,0.656
same,relative viability,MK-2206 + Olaparib; first compound 1 µM,0.63
NCI-H2170,relative viability,Pictilisib + Phenformin; first compound 0.02 µM,0.394
same,relative viability,Pictilisib + Phenformin; first compound 0.06325 µM,0.444
same,relative viability,Pictilisib + Phenformin; first compound 0.6325 µM,0.424
same,relative viability,Pictilisib + Phenformin; first compound 2 µM,0.365
same,relative viability,Pictilisib + Vorinostat; first compound 0.02 µM,0.856
same,relative viability,Pictilisib + Vorinostat; first compound 0.06325 µM,0.822
same,relative viability,Pictilisib + Vorinostat; first compound 0.6325 µM,0.611
same,relative viability,Pictilisib + Vorinostat; first compound 2 µM,0.304
same,relative viability,MK-2206 + Luminespib; first compound 0.01 µM,0.697
same,relative viability,MK-2206 + Luminespib; first compound 0.03162 µM,0.822
same,relative viability,MK-2206 + Luminespib; first compound 0.3162 µM,0.616
same,relative viability,MK-2206 + Luminespib; first compound 1 µM,0.557
same,relative viability,MK-2206 + Phenformin; first compound 0.01 µM,0.398
same,relative viability,MK-2206 + Phenformin; first compound 0.03162 µM,0.44
same,relative viability,MK-2206 + Phenformin; first compound 0.3162 µM,0.426
same,relative viability,MK-2206 + Phenformin; first compound 1 µM,0.404
same,relative viability,MK-2206 + Olaparib; first compound 0.01 µM,0.617
same,relative viability,MK-2206 + Olaparib; first compound 0.03162 µM,0.585
same,relative viability,MK-2206 + Olaparib; first compound 0.3162 µM,0.597
same,relative viability,MK-2206 + Olaparib; first compound 1 µM,0.558
NCI-H1793,relative viability,Pictilisib + Phenformin; first compound 0.02 µM,0.387
same,relative viability,Pictilisib + Phenformin; first compound 0.06325 µM,0.38
same,relative viability,Pictilisib + Phenformin; first compound 0.6325 µM,0.221
same,relative viability,Pictilisib + Phenformin; first compound 2 µM,0.203
same,relative viability,Pictilisib + Vorinostat; first compound 0.02 µM,0.712
same,relative viability,Pictilisib + Vorinostat; first compound 0.06325 µM,0.724
same,relative viability,Pictilisib + Vorinostat; first compound 0.6325 µM,0.379
same,relative viability,Pictilisib + Vorinostat; first compound 2 µM,0.243
same,relative viability,MK-2206 + Luminespib; first compound 0.01 µM,0.186
same,relative viability,MK-2206 + Luminespib; first compound 0.03162 µM,0.178
same,relative viability,MK-2206 + Luminespib; first compound 0.3162 µM,0.164
same,relative viability,MK-2206 + Luminespib; first compound 1 µM,0.174
same,relative viability,MK-2206 + Phenformin; first compound 0.01 µM,0.386
same,relative viability,MK-2206 + Phenformin; first compound 0.03162 µM,0.47
same,relative viability,MK-2206 + Phenformin; first compound 0.3162 µM,0.206
same,relative viability,MK-2206 + Phenformin; first compound 1 µM,0.218
same,relative viability,MK-2206 + Olaparib; first compound 0.01 µM,0.87
same,relative viability,MK-2206 + Olaparib; first compound 0.03162 µM,1.02
same,relative viability,MK-2206 + Olaparib; first compound 0.3162 µM,0.791
same,relative viability,MK-2206 + Olaparib; first compound 1 µM,0.766
